The source of these data is patent publication US4812573A, “Pharmaceutically active compounds” (SmithKline & French Laboratories, Ltd., priority 1986, dated 1989).

One assay has as its system human washed platelets. The assay can be described thus: human platelet aggregation assay (submaximal U46619 induced aggregation). In kind it is cell-based. From the text:
As indicated above, compounds of the formula (I) have biological activity that is indicative of an ability to antagonise TXA2 receptors.
(b) human platelet aggregation assay.
HUMAN PLATELET AGGREGATION ASSAY
The aggregation assay used human washed platelets and was based on that described by Born (Nature, 1962, vol. 194, 927-929). The assay determines a concentration of test compound which inhibits a submaximal U46619 induced aggregation by 50% (IC50). U46619 is the thromboxane A2 -agonist (9,11-dideoxy-11α,9α-epoxymethanoprostaglandin F2α).

For a further assay, the target named is T1, TXA2 receptors (Homo sapiens, UniProt P21731).
T1 construct: endogenous in cells; host or cells: human platelets
T1 sequence (P21731 1-343): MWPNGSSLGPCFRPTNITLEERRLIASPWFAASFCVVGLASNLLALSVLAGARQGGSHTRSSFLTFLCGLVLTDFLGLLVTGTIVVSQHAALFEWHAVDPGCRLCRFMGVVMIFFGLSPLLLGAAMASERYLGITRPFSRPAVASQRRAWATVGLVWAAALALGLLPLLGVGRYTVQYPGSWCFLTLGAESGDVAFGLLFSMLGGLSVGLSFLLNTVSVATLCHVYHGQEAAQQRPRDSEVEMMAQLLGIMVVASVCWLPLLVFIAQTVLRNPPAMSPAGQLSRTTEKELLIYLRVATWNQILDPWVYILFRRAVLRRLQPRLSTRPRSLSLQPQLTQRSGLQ
The assay can be described thus: human platelet binding assay ([^125 I]PTA-OH receptor ligand). The conditions noted are these: 50% inhibition of specific [^125 I]PTA-OH binding. From the text:
As indicated above, compounds of the formula (I) have biological activity that is indicative of an ability to antagonise TXA2 receptors. […] Exp. Ther., 1985, 235(3), 729-734 where [^125 I]PTA-OH was used as the receptor ligand. The IC50 values represent the concentration which produces a 50% inhibition of specific [^125 I]PTA-OH binding.

Counter-ions that a name gives are not always drawn.

One may read the IC50 as the concentration that inhibits the measured activity by half. Higher therefore signals weaker potency. Regarding `O=C(O)CCN1CCc2ccc(S(=O)(=O)Nc3cccc(Cl)c3)cc2C1` [Example 1, 3-[7-(3-Chlorophenylsulphamoyl)-1,2,3,4-tetrahydroisoquinolin-2-yl]propionic acid], the half-inhibitory concentration (IC50) in the assay on human washed platelets came to 103 µM; at TXA2 receptors it was 49.3 µM. The matching figures for `O=C(O)CCCN1CCc2ccc(S(=O)(=O)Nc3cccc(Cl)c3)cc2C1` [Example 2, 4-[7-(3-Chlorophenylsulphamoyl)-1,2,3,4-tetrahydroisoquinolin-2-yl]butyric acid]: 9.3 µM and 1.02 µM. For `CCOC(=O)CCCCN1CCc2ccc(S(=O)(=O)Nc3cccc(Cl)c3)cc2C1` [Example 3a, ethyl-5-[7-(3-chlorophenylsulphamoyl)-1,2,3,4-tetrahydroisoquinolin-2-yl]valerate hydrochloride], the 50% inhibitory concentration (IC50) on TXA2 receptors came to 3.1 µM. As to `O=C(O)CCCCN1CCc2ccc(S(=O)(=O)Nc3cccc(Cl)c3)cc2C1` [Example 3b, 5-[7-(3-Chlorophenylsulphamoyl)-1,2,3,4-tetrahydroisoquinolin-2-yl]valeric acid], the IC50 came out at 3.9 µM in the assay on human washed platelets and 1.06 µM on TXA2 receptors.

With `O=C(O)CCCCCN1CCc2ccc(S(=O)(=O)Nc3cccc(Cl)c3)cc2C1` [Example 4, 6-[7-(3-Chlorophenylsulphamoyl)-1,2,3,4-tetrahydroisoquinolin-2-yl]hexanoicacid], the IC50 in the assay on human washed platelets turned out to be 34 µM; on TXA2 receptors it was 3.8 µM. `O=C(O)CCCN1CCc2ccc(S(=O)(=O)Nc3ccccc3)cc2C1` [Example 5, 4-(7-Phenylsulphamoyl-1,2,3,4-tetrahydroisoquinolin-2-yl)butyric acid] yielded an IC50 on TXA2 receptors of 3.75 µM. `O=C(O)CCCCN1CCc2ccc(S(=O)(=O)Nc3ccccc3)cc2C1` [Example 6, 5-(7-Phenylsulphamoyl-1,2,3,4-tetrahydroisoquinolin-2-yl)valeric acid]: the 50% inhibitory concentration (IC50) at TXA2 receptors is 9.2 µM. Same read-out and setting: with `O=C(O)CCCN1CCc2ccc(S(=O)(=O)Nc3cccc(C(F)(F)F)c3)cc2C1` [Example 7, 4-[7-(3-Trifluoromethylphenylsulphamoyl)-1,2,3,4-tetrahydroisoquinolin-2-yl]butyric acid] the figure was 2.8 µM; with `O=C(O)C#CCN1CCc2ccc(S(=O)(=O)Nc3cccc(Cl)c3)cc2C1` [Example 8, Sodium 4-[7-(3-chlorophenylsulphamoyl)-1,2,3,4-tetrahydroisoquinolin-2-yl]but-2-ynoate], 0.7 µM; with `O=C(O)CCCN1CCc2c(cccc2NS(=O)(=O)c2ccccc2)C1` [Example 9, 4-[5-(Phenylsulphonamido)-1,2,3,4-tetrahydroisoquinolin-2-yl]butyric acid hydrochloride], 79 µM. The same measure, in the same setting: as for `O=C(O)CCCCN1CCc2c(cccc2NS(=O)(=O)c2ccccc2)C1` [Example 10, 5-[(5-Phenylsulphonamido)-1,2,3,4-tetrahydroisoquinolin-2-yl]valeric acid hydrochloride], the figure is 134 µM; as for `O=C(O)CCCN1CCc2cc(NS(=O)(=O)c3ccccc3)ccc2C1` [Example 11, 4-[6-Phenylsulphonamido-1,2,3,4-tetrahydroisoquinolin-2-yl]butyric acid], 232 µM; as for `O=C(O)CCCCN1CCc2ccc(NS(=O)(=O)c3ccccc3)cc2C1` [Example 12, 5-[7-Phenylsulphonamido-1,2,3,4-tetrahydroisoquiolin-2-yl]valeric acid], 40.7 µM.

On TXA2 receptors, `O=C(O)CN1CCc2ccc(NS(=O)(=O)c3ccccc3)cc2C1` [Example 13, 2-[(7-Phenylsulphonamido)-1,2,3,4-tetrahydroisiquinolin-2-yl]-acetic acid hydrochloride] displayed a 50% inhibitory concentration (IC50) of 84 µM. At TXA2 receptors, `CCCCC(C(=O)O)N1CCc2ccc(NS(=O)(=O)c3ccccc3)cc2C1` (centres unmarked) [Example 14, 2-[(7-Phenylsulphonamido)-1,2,3,4-tetrahydroisoquinolin-2-yl]-caproic acid hydrochloride] registered a 50% inhibitory concentration (IC50) of 98 µM. The same measure, in the same setting: with `O=C(O)CCCN1CCc2ccc(S(=O)(=O)Nc3ccc(Cl)cc3)cc2C1` [Example 15, 4-[7-(4-Chlorophenylsulphamoyl)-1,2,3,4-tetrahydroisoquinolin-2-yl]butyric acid] the figure was 7.8 µM.
